Measured values published in patent US12338204B2, “Substituted bisphenylalkylurea compounds and methods of treating breast cancer” (Texas Tech University System, priority 2018, dated 2025).

Key:
[1] = Ability to cross the blood-brain-barrier; details: statement in words, no data shown
[2] = system: TNBCs and their metastases; assay: Stopping the growth of TNBCs and their metastases; details: statement in words, no data shown

Which “ability to cross the blood-brain-barrier (BBB)” value [1] does the source give for `COc1ccc(C(CCCCNC(=O)Nc2ccc(Cl)c([N+](=O)[O-])c2)c2ccc(OC)cc2)cc1` [1-(5,5-bis(4-methoxyphenyl)pentyl)-3-(4-chloro-3-nitrophenyl)urea] here?
Its value is “shows the ability to cross the blood-brain-barrier”.

And the “stopping the growth of TNBCs and their metastases” value [2]?
Its value is “effective in stopping the growth of TNBCs and their metastases”.
